Results on nine compounds are retold here after article PMC2834170 (Bioorganic & medicinal chemistry letters, 2010).

Assay [1] deals with μ, δ and κ opioid receptors. The assay is described as follows: Selectivity across μ, δ and κ opioid binding to CHO membranes. The conditions noted are these: for Selectivity μ/δ/κ: ratio of Ki values, CHO membranes.
A further assay has as its target μ opioid receptor (Homo sapiens, UniProt P35372). The assay is described as follows: Inhibition of μ opioid binding to CHO membranes.
Another assay addresses κ opioid receptor (Homo sapiens, UniProt P41145). The assay is described as follows: Inhibition of κ opioid binding to CHO membranes.
The mark [2] stands for this setting: relative to ether based compound 3.

μ opioid receptor, sequence (P35372 whole entry, species assumed): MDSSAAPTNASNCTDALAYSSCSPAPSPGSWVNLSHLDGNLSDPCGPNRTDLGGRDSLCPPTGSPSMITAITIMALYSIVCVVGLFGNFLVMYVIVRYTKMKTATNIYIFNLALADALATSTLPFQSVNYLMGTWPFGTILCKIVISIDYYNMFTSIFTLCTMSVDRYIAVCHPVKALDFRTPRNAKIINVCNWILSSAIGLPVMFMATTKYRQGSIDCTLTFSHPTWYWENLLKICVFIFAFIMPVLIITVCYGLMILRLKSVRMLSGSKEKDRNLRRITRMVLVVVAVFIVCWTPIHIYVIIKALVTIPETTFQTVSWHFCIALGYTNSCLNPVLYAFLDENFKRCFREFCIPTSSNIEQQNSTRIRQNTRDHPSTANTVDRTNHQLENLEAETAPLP
κ opioid receptor, sequence (P41145 whole entry): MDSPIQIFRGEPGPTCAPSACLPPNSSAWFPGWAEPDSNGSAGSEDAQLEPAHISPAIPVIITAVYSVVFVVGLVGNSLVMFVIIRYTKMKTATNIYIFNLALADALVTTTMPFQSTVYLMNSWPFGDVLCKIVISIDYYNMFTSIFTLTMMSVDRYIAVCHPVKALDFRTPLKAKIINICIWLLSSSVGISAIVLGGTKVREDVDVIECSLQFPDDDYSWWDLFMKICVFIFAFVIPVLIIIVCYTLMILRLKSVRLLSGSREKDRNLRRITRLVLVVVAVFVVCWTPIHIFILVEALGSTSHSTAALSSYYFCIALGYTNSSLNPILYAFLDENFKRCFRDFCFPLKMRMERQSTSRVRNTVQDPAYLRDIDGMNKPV

Turning to `OC(COc1ccc2c(c1)[C@@]13CCCC[C@H]1[C@@H](C2)N(CC1CCC1)CC3)CC(O)COc1ccc2c(c1)[C@@]13CCCC[C@H]1[C@@H](C2)N(CC1CCC1)CC3` (some centres unmarked) [Compound 7], the “Selectivity μ/δ/κ” value in assay [1] is reported as 7/194/1.
As for `CCCCCCCCCCOc1ccc2c(c1)[C@@]13CCCC[C@H]1[C@@H](C2)N(CC1CCC1)CC3` [Compound 17], the “weaker binding affinity at the μ opioid receptor” value on μ opioid receptor (relative to 15) is 10 fold.
With `OC(COc1ccc2c(c1)[C@@]13CCCC[C@H]1[C@@H](C2)N(CC1CCC1)CC3)COc1ccc2c(c1)[C@@]13CCCC[C@H]1[C@@H](C2)N(CC1CCC1)CC3` [Compound 6], the “greater binding affinity at the μ receptor” value at μ opioid receptor (relative to des-hydroxy analog 5) was 7.5 fold. The “Selectivity μ/δ/κ” value in assay [1] was 1/39/1.
Consider `OC(CCCCCCC(O)COc1ccc2c(c1)[C@@]13CCCC[C@H]1[C@@H](C2)N(CC1CCC1)CC3)COc1ccc2c(c1)[C@@]13CCCC[C@H]1[C@@H](C2)N(CC1CCC1)CC3` (stereo partly drawn) [Compound 12, Bis-((−)-N-cyclobutylmethylmorphinan-3-oxy) decane-2,9-diol], for which, at μ opioid receptor (setting [2]), the “increase in binding affinity at the μ opioid receptor” value was found to be 27 fold. For the same compound, the “increase in binding affinity at the κ opioid receptor” value on κ opioid receptor (setting [2]) is recorded as 86 fold.
Turning to `c1cc2c(cc1OCC1CO1)[C@@]13CCCC[C@H]1[C@@H](C2)N(CC1CCC1)CC3` (some centres unmarked) [Compound 14], the “Selectivity μ/δ/κ” value in assay [1] is 1/27/5.
Regarding `OC(COc1ccccc1)COc1ccc2c(c1)[C@@]13CCCC[C@H]1[C@@H](C2)N(CC1CCC1)CC3` (some centres unmarked) [Compound 18], the “weaker binding affinity at the μ opioid receptor” value at μ opioid receptor (relative to bivalent hydroxy ether 6) worked out at 7.5 fold. Further, in assay [1], the “Selectivity μ/δ/κ” value was 1/13/3.
With `CCCCCCCCCC(=O)Oc1ccc2c(c1)[C@@]13CCCC[C@H]1[C@@H](C2)N(CC1CCC1)CC3` [Compound 16], the “Ki (nM) ± SE μ” value at μ opioid receptor (CHO membranes) was “sub-nanomolar”. Further, the “Ki (nM) ± SE κ” value on κ opioid receptor (CHO membranes) is “sub-nanomolar”. Further, the “Selectivity μ/δ/κ” value in assay [1] is reported as 1/100/1.
Regarding `CCCCCCCCC(O)COc1ccc2c(c1)[C@@]13CCCC[C@H]1[C@@H](C2)N(CC1CCC1)CC3` (some centres unmarked) [Compound 15], in assay [1] (relative to bivalent ligand 12), the “weaker binding affinity at the μ and κ receptors” value was 3–6 fold.
On to `OC(CCCCC(O)COc1ccc2c(c1)[C@@]13CCCC[C@H]1[C@@H](C2)N(CC1CCC1)CC3)COc1ccc2c(c1)[C@@]13CCCC[C@H]1[C@@H](C2)N(CC1CCC1)CC3` (some centres unmarked) [Compound 10], for which, in assay [1], the “Selectivity μ/δ/κ” value was 1/23/1.
